Values quoted from earlier work, collected in PMC11476552, “Synthesis and Preliminary Studies for In Vitro Biological Activity of Two New Water-Soluble Bis(thio)carbohydrazones and Their Copper(II) and Zinc(II) Complexes” (International Journal of Molecular Sciences, 2024).

Set-up: method as in PMID 29334758
Settings: cited from earlier work

SMILES	cytotoxic activity (in words)
S=C(N/N=C1\CCCc2cccnc21)N1CCN(c2ccccn2)CC1 [COTI-2]	nanomolar cytotoxic activity
CN(C(=S)NN=C(c1ccccn1)c1ccccn1)C1CCCCC1 [DpC, di-2-pyridylketone 4-cyclohexyl-4-methyl-3-thiosemicarbazone]	nanomolar cytotoxic activity
